Reference: patent US10159685B2, “Vascular calcification” (Cambridge Enterprise Limited, priority 2016, dated 2018)
Read-outs that look alike come from different tables or passages of the source. Marks after values point to notes of the source that are not given here.

Columns and labels:
[1] = system: human monocyte-macrophages (HMMs); assay: MTT toxicity assay, HMMs, seven days (Example 3); assay type: cell-based; details: 7 days; for Cell viability by MTT, percent of control: mean of three experiments; for Toxicity to HMMs (in words): at a concentration of 100 μM
Protocol: A similar set of toxicity experiments was performed with human monocyte-macrophages (HMMs).

[2] = system: PARP produced by a mammalian cell; details: have been shown; cited from earlier work
[3] = system: bovine vascular smooth muscle cells (bVSMCs); assay type: cell-based; details: 7 days; for Cell viability of bVSMCs after seven days (MTT signal, relative to control): mean of three experiments
Protocol: The toxicity of the identified compounds to bovine VSMCs was measured using the MTT assay, which measures the activity of dehydrogenase enzymes of live cells. This assay can pick up both cell death and proliferation.
Bovine VSMCs were seeded in 96 well plates and cultured in M199/20% FCS for 1 day. Then, the cells were incubated with inhibitor concentrations from 0.5 to 100 μM (in M199 medium+5% FBS). The cells were incubated with the inhibitors for 7 days; every 2-3 days the medium −/+inhibitors was exchanged. Then, the MTT assay was performed. The stock vehicle DMSO was tested at corresponding concentrations to the inhibitors at 0.1% DMSO or less.

[4] = system: bovine vascular smooth muscle cells (bVSMCs); assay: o-Cresolphthalein Ca2+ assay, bVSMC GAD calcification model (Examples 4 and 5); assay type: cell-based; details: GAD-treated bVSMCs, 10 μM, 7 d
Protocol: (§1) For the bVSMCs a GAD medium (10 mM β-glycerophosphate/0.1 mM L-ascorbic acid-2-phosphate/10 nM dexamethasone) model was used to induce mineralization in bVSMCs. Accordingly, cells were seeded in tissue culture plates using M199/20% FCS culture medium and cultured overnight. The next day, cells were treated either with medium only (M199/5% FBS)+/−inhibitors, or with the GAD-medium (10 mM β-glycerophosphate/0.1 mM L-ascorbic acid-2-phosphate/[…] dexamethasone)+/−inhibitors.
Medium+/−inhibitors was exchanged every 2-3 days. […]
The o-Cresolphthalein assay is a spectrophotometric method for measuring Ca^2+-concentrations in cell/tissue lysates. Following the calcification experiments, cells are briefly washed to remove medium and 100 […]1 of 0.1 N HCl is added to each well to dissolve any mineral deposits. Then, the Ca^2+-concentration of the samples is measured spectrophotometrically (at 570 nm) in the o-cresolphthalein assay with the help of a CaCl2 standard curve in a concentration range of ˜0.02-270 µg Ca^2+/ml.
The commercial BioRad DC protein assay is based on the Lowry method, aka reaction of proteins with a copper-tartrate complex and subsequent reaction with Folin's reagent. Following the calcification experiment, cells are briefly washed to remove medium and 100 µl of solubilisation solution (0.1 M NaOH/1% SDS/DIW) is added to each well to lyse the cells. The protein concentrations of the lysates are subsequently determined in the BioRad DC assay as per supplier's instructions using BSA (bovine serum albumin) as standard.
The in vitro model is the same as the model used in example 4; bovine vascular smooth muscle cells (bVSMCs) cultured so that they produce extracellular matrix, with the addition of the GAD medium (10 mM β-glycerophosphate/0.1 mM L-ascorbic acid-2-phosphate/10 nM dexamethasone).
As above, cells were treated either with medium only (“no-additions”; NA)+/−inhibitors, or with the GAD-medium+/−inhibitors. The inhibitors used were PJ34 and minocyclin (MC) at 10 μM, 1 μM and 0.1 μM.
The methodology was the same as that described in example 4.

[5] = system: human vascular smooth muscle cells (hVSMCs); assay: o-Cresolphthalein Ca2+ assay, hVSMC Ca/P calcification model (Examples 7-9); assay type: cell-based; details: hVSMCs, 8 days, concentrations between 0.05 μM and 3 μM
Protocol: Primary hVSMCs were cultured in M199 media containing FBS (M199/5% FBS). They were plated at a known cell density, allowed to grow for 24 hours and then treated with control (DMSO only) or calcification media (DMSO containing 2.7 mM Calcium+2.5 mM phosphate)+/−inhibitors. After 6 days, calcification was assessed using the o-Cresolphthalein assay for quantification of Ca^2+ deposition and a BioRad protein assay for protein content.
Medium+/−inhibitors was exchanged every 2-3 days.
Primary hVSMCs were cultured in M199 media containing FBS (M199/5% FBS). They were plated at a known cell density, allowed to grow for 24 hours and then treated with control (DMSO only) or calcification media (DMSO containing 2.7 mM Calcium+2.5 mM phosphate)+/−inhibitors. After 8 days, calcification was assessed using o-Cresolphthalein assay for quantification of Ca^2+ deposition and a BioRad protein assay for protein content.
All of the compounds tested were used at a concentration of 3 μM. Medium+/−inhibitors was exchanged every 2-3 days.
Primary hVSMCs were cultured in M199 media containing FBS (M199/5% FBS). They were plated at a known cell density, allowed to grow for 24 hours and then treated with control (DMSO only) or calcification media (DMSO containing 2.7 mM Calcium+2.5 mM phosphate)+/−compounds. After 8 days, calcification was assessed using o-Cresolphthalein assay for quantification of Ca^2+ deposition and a BioRad protein assay for protein content.
These concentrations were chosen to mimic the systemic concentrations of these drugs following patient dosing according to the dose schedule in the prescribing information for each drug. Medium+/−inhibitors was exchanged every 2-3 days.

[6] = system: bovine vascular smooth muscle cells (bVSMCs); assay: Alizarin Red S staining, bVSMC GAD calcification model (Example 4); assay type: cell-based; details: GAD-treated bVSMCs, 10 μM, 7 d, versus no inhibitor
Protocol: as §1
Medium+/−inhibitors was exchanged every 2-3 days. Bovine VSMCs were incubated for 7 d prior to assessment.
The Alizarin Red S staining is a visual/histological stain for tissue calcium deposits. Cells are briefly fixed in 4% paraformaldehyde/PIPES buffer pH 7.2 and subsequently stained for 5 min with Alizarin Red S (2% Alizarin Red S/DIW pH 4.2). Excess stain is removed by washing in DIW. Calcium mineral deposits are stained a bright orange red.

[7] = at the concentrations tested (0.5 to 100 μM)

SMILES	Cell viability by MTT, percent of control ([1]; 0.5 uM)	Cell viability by MTT, percent of control ([1]; 1 uM)	Cell viability by MTT, percent of control ([1]; 2 uM)	Cell viability by MTT, percent of control ([1]; 5 uM)	Cell viability by MTT, percent of control ([1]; 10 uM)	Cell viability by MTT, percent of control ([1]; 20 uM)	Cell viability by MTT, percent of control ([1]; 50 uM)	Cell viability by MTT, percent of control ([1]; 100 uM)	Toxicity to HMMs (in words) [1]	Cell viability of bVSMCs after seven days (MTT signal, relative to control) ([3]; 0.5 uM)	Cell viability of bVSMCs after seven days (MTT signal, relative to control) ([3]; 1 uM)	Cell viability of bVSMCs after seven days (MTT signal, relative to control) ([3]; 2 uM)	Cell viability of bVSMCs after seven days (MTT signal, relative to control) ([3]; 5 uM)	Cell viability of bVSMCs after seven days (MTT signal, relative to control) ([3]; 10 uM)	Cell viability of bVSMCs after seven days (MTT signal, relative to control) ([3]; 20 uM)	Cell viability of bVSMCs after seven days (MTT signal, relative to control) ([3]; 50 uM)	Cell viability of bVSMCs after seven days (MTT signal, relative to control) ([3]; 100 uM)	Toxicity to bVSMCs (MTT assay, in words) [3, 7]	Calcium levels (mass of calcium, FIG. 7B) compared to no inhibitors [4]	Normalised calcium levels (mass of calcium per mass of protein, FIG. 9B) [4]	also measured
NC(=O)c1cccc(N)c1 [3-AB, 3-aminobenzamide]	115.25	80.78	88.03	93.51	97.34	85.76	95.92	104.20	relatively innocuous	95.77	99.58	94.53	93.35*	91.99*	93.42*	94.64	92.48*	virtually non-toxic	no effect	slightly lower calcium levels	Inhibition of PARP produced by a mammalian cell [2]: inhibit PARP
CC(=O)CCCCn1c(=O)c2c(ncn2C)n(C)c1=O [Pentoxifylline, pentoxifylline]	98.73	90.57	91.92	107.27	88.35	93.54	89.28	89.64	relatively innocuous	97.68	95.91	92.19*	91.33*	91.77*	92.43*	93.01*	96.96	virtually non-toxic	no effect	slightly lower calcium levels	Inhibition of calcification, normalised results (FIG. 27) [5]: do not inhibit calcification
COc1ccccc1Oc1c(NS(=O)(=O)c2ccc(C(C)(C)C)cc2)nc(-c2ncccn2)nc1OCCO [bosentan MH, Bosentan monohydrate]	91.59	99.82	97.16	84.90	79.36	83.25	73.65	64.97*	most toxic	101.97	96.12	91.91*	93.05*	93.87*	97.20	103.69	85.05*	little toxicity	no effect	slightly lower calcium levels	Inhibition of calcification, normalised results (FIG. 27) [5]: do not inhibit calcification
OCCN(CCO)c1nc(N2CCCCC2)c2nc(N(CCO)CCO)nc(N3CCCCC3)c2n1 [Dipyridamol, dipyridamol]																			elevate calcium levels	elevate calcium levels	Degree of mineralization judged by eye (Alizarin Red S, FIG. 6) [6]: slightly worse; Toxicity to bVSMCs (MTT assay, in words) ([3]; at 50 and 100 μM): toxic
